Numbered stars: 1 amine (or outer) side, 2 acyl side, 3 side chain; on linkers, the order of the positions; unused ones are H or OH. Side chains are listed from the residue outwards. Peptide text beside a SMILES is read from it. * marks the point of attachment. C18 diacid = O=C(O)CCCCCCCCCCCCCCCCC(=O)*; γGlu = O=C(O)[C@H](CCC(=O)[*:2])N[*:1]; AEEA = NCCOCCOCC(=O)O
Assay: Assay (II) PK i.v. minipig, in vivo half-life
Set-up: species or system Göttingen mini-pigs
Conditions: male, Göttingen, minipig, iv, Half-life minipig, Assay (II)
Protocol: An assay useful for measuring the pharmacokinetic (PK) profile of the PP peptide is the following mini-pig PK assay.
Five male Göttingen mini-pigs weighing approximately 18 to 22 kg from Ellegaard Göttingen Minipigs NS, Denmark are included in the study. The mini-pigs have two central venous catheters inserted which are used for intra venous (i.v.) dosing and blood sampling. The test compound is dissolved in 50 mM K2HPO4, 0.05% tween 80, pH=8.0 to a concentration of 180 nmol/ml. For comparison a control compound, such as human PP(1-36), may be administered. The pigs are dosed with 6 nmol test compound/kg body weight. Blood samples are taken at the following time points: pre-dose, 30 minutes, 1, 2, 4, 8, 24, 48, 72, 96, 120, 168 and 240 hours post dosing. The blood samples were collected into test tubes containing EDTA buffer for stabilization and kept on ice for max. 20 minutes before centrifugation. The centrifugation procedure to separate plasma may be: 4° C., approx. 2500 g for 10 minutes. Plasma is collected and immediately transferred to Micronic tubes stored at −20° C. until assayed.
The test compounds were assayed in plasma by Turbulent Flow Chromatography coupled to Liquid Chromatography with subsequent Tandem Mass Spectrometric Detection (TFC/LC/MS/MS). Positive mode ionization and Multiple Reaction Monitoring (MRM) of a multiple protonated species fragmented to a singly charged ion was employed for selectivity. The selectivity of the method allows multiple compounds to be quantified in one sample.
The concentrations of the test compound in samples of unknown concentration were calculated using the peak area as a function of amount. Calibration graphs based on plasma samples spiked with the analyte were constructed by regression analysis. Typical dynamic range for standard assay was 1-2000 nmol/I. The method performance was assured by co-assaying quality control (QC) samples in duplicate at three concentration levels.
Stock and working solutions of analytes were prepared in plasma and incubated by 37° C. for 1 hour.
Sample Preparation: 40.0 μl EDTA-plasma was added 160 μl 50% methanol, 1% formic acid, then vortexed and centrifuged at 16457 g at 4° C. for 20 minutes. The supernatant was transferred to a 96 well plate, plates incubated with 0.4% BSA, 37° C. for ½ hour. Injection volume was 25 μl.
The analysis was carried out on a Sciex API 3000 mass spectrometer (MDS/Sciex, Concord, ON, Canada) using a TurbolonSpray interface. The TFC/LC system consisted of two Flux Rheos 2000 quaternary pumps, a Cohesive VIM module (Cohesive Technologies, Franklin, Mass., USA) and a CTC LC/PAL auto sampler (CTC Analytics, Zingen, Switzerland). The centrifuge employed was a HettichMikro 22R (A. Hettich, Tuttlingen, Germany). For sample clean up a TurboFlow C8 column (0.5×50 mm) (Cohesive Technologies/Thermofisher) was used and the LC separation was done on a Proteo 4 μm column (2.0×50 mm) (Phenomenex, Torrance, Calif., USA). Eluents were isocratic and gradient combinations of methanol, acetonitril, Milli-Q water and formic acid.
Non-compartmental analysis (NCA): Plasma concentration-time profiles are analyzed by non-compartmental pharmacokinetics analysis (NCA) using WinNonlin Professional 5.0 (Pharsight Inc., Mountain View, Calif., USA). NCA is performed using the individual plasma concentration-time profiles from each animal.

`CC[C@H](C)[C@H](NC(=O)[C@H](Cc1ccc(O)cc1)NC(=O)[C@H](CCCNC(=N)N)NC(=O)[C@H](CCCNC(=N)N)NC(=O)[C@H](CC(C)C)NC(=O)[C@H](CC(=O)O)NC(=O)[C@H](C)NC(=O)[C@H](C)NC(=O)[C@H](Cc1ccc(O)cc1)NC(=O)[C@H](CCC(N)=O)NC(=O)[C@H](C)NC(=O)[C@H](CCSC)NC(=O)[C@H](CCC(N)=O)NC(=O)[C@H](CCC(=O)O)NC(=O)[C@@H]1CCCN1C(=O)[C@@H](NC(=O)[C@H](C)NC(=O)[C@H](CC(N)=O)NC(=O)[C@H](CC(=O)O)NC(=O)CNC(=O)[C@@H]1CCCN1C(=O)[C@H](Cc1ccc(O)cc1)NC(=O)[C@@H](NC(=O)[C@@H]1CCCN1C(=O)[C@H](CCC(=O)O)NC(=O)[C@@H](N)CC(C)C)C(C)C)[C@@H](C)O)C(=O)N[C@@H](CC(N)=O)C(=O)N[C@@H](CCSC)C(=O)N[C@@H](CC(C)C)C(=O)N[C@H](C(=O)N[C@@H](CCCCNC(=O)COCCOCCNC(=O)COCCOCCNC(=O)CC[C@H](NC(=O)CCCCCCCCCCCCCCCCC(=O)O)C(=O)O)C(=O)N1CCC[C@H]1C(=O)N[C@@H](CCCNC(=N)N)C(=O)N[C@@H](Cc1ccc(O)cc1)C(N)=O)[C@@H](C)O` [AI] (H-LEPVYPGDNATPEQMAQYAADLRRYINMLTK([AEEA-AEEA-γGlu-C18 diacid])PRY-NH2; N-terminus and C-terminus assumed) and `CC[C@H](C)[C@H](NC(=O)[C@H](Cc1ccc(O)cc1)NC(=O)[C@H](CCCNC(=N)N)NC(=O)[C@H](CCCNC(=N)N)NC(=O)[C@H](CC(C)C)NC(=O)[C@H](CC(=O)O)NC(=O)[C@H](C)NC(=O)[C@H](C)NC(=O)[C@H](Cc1ccc(O)cc1)NC(=O)[C@H](CCC(N)=O)NC(=O)[C@H](C)NC(=O)[C@H](CCSC)NC(=O)[C@H](CCC(N)=O)NC(=O)[C@H](CCC(=O)O)NC(=O)[C@@H]1CCCN1C(=O)[C@@H](NC(=O)[C@H](C)NC(=O)[C@H](CC(N)=O)NC(=O)[C@H](CC(=O)O)NC(=O)CNC(=O)[C@@H]1CCCN1C(=O)[C@H](Cc1ccc(O)cc1)NC(=O)[C@@H](NC(=O)[C@@H]1CCCN1C(=O)[C@H](CCCCNC(=O)COCCOCCNC(=O)COCCOCCNC(=O)CC[C@H](NC(=O)CCCCCCCCCCCCCCCCC(=O)O)C(=O)O)NC(=O)[C@@H](N)CC(C)C)C(C)C)[C@@H](C)O)C(=O)N[C@@H](CC(N)=O)C(=O)N[C@@H](CCSC)C(=O)N[C@@H](CC(C)C)C(=O)N[C@H](C(=O)N[C@@H](CCCNC(=N)N)C(=O)N1CCC[C@H]1C(=O)N[C@@H](CCCNC(=N)N)C(=O)N[C@@H](Cc1ccc(O)cc1)C(N)=O)[C@@H](C)O` [BL] are within 1.5-fold of each other in half-life: 45 h for the first, 52 h for the second.

Compared with `CC[C@H](C)[C@H](NC(=O)[C@H](Cc1ccc(O)cc1)NC(=O)[C@H](CCCNC(=N)N)NC(=O)[C@H](CCCNC(=N)N)NC(=O)[C@H](CC(C)C)NC(=O)[C@H](CC(=O)O)NC(=O)[C@H](C)NC(=O)[C@H](C)NC(=O)[C@H](Cc1ccc(O)cc1)NC(=O)[C@H](CCC(N)=O)NC(=O)[C@H](C)NC(=O)[C@H](CCSC)NC(=O)[C@H](CCC(N)=O)NC(=O)[C@H](CCC(=O)O)NC(=O)[C@@H]1CCCN1C(=O)[C@@H](NC(=O)[C@H](C)NC(=O)[C@H](CC(N)=O)NC(=O)[C@H](CC(=O)O)NC(=O)CNC(=O)[C@@H]1CCCN1C(=O)[C@H](CCCCNC(=O)COCCOCCNC(=O)COCCOCCNC(=O)CC[C@H](NC(=O)CCCCCCCCCCCCCCCCC(=O)O)C(=O)O)NC(=O)[C@@H](NC(=O)[C@@H]1CCCN1C(=O)[C@H](CCC(=O)O)NC(=O)[C@H](CC(C)C)NC(=O)[C@@H]1CCCN1)C(C)C)[C@@H](C)O)C(=O)N[C@@H](CC(N)=O)C(=O)N[C@@H](CCSC)C(=O)N[C@@H](CC(C)C)C(=O)N[C@H](C(=O)N[C@@H](CCCNC(=N)N)C(=O)N1CCC[C@H]1C(=O)N[C@@H](CCCNC(=N)N)C(=O)N[C@@H](Cc1ccc(O)cc1)C(N)=O)[C@@H](C)O` [Compound AA], `CC[C@H](C)[C@H](NC(=O)[C@H](Cc1ccc(O)cc1)NC(=O)[C@H](CCCNC(=N)N)NC(=O)[C@H](CCCNC(=N)N)NC(=O)[C@H](CC(C)C)NC(=O)[C@H](CC(=O)O)NC(=O)[C@H](C)NC(=O)[C@H](C)NC(=O)[C@H](Cc1ccc(O)cc1)NC(=O)[C@H](CCC(N)=O)NC(=O)[C@H](C)NC(=O)[C@H](CCSC)NC(=O)[C@H](CCC(N)=O)NC(=O)[C@H](CCC(=O)O)NC(=O)[C@@H]1CCCN1C(=O)[C@@H](NC(=O)[C@H](C)NC(=O)[C@H](CC(N)=O)NC(=O)[C@H](CC(=O)O)NC(=O)CNC(=O)[C@@H]1CCCN1C(=O)[C@H](Cc1ccc(O)cc1)NC(=O)[C@@H](NC(=O)[C@@H]1CCCN1C(=O)[C@H](CCCCNC(=O)COCCOCCNC(=O)COCCOCCNC(=O)CC[C@H](NC(=O)CCCCCCCCCCCCCCCCC(=O)O)C(=O)O)NC(=O)[C@H](CC(C)C)NC(=O)[C@@H]1CCCN1)C(C)C)[C@@H](C)O)C(=O)N[C@@H](CC(N)=O)C(=O)N[C@@H](CCSC)C(=O)N[C@@H](CC(C)C)C(=O)N[C@H](C(=O)N[C@@H](CCCNC(=N)N)C(=O)N1CCC[C@H]1C(=O)N[C@@H](CCCNC(=N)N)C(=O)N[C@@H](Cc1ccc(O)cc1)C(N)=O)[C@@H](C)O` [Compound AD] is 3.1-fold higher in half-life: 17 h for the first, 52 h for the second.

First: CC[C@H](C)[C@H](NC(=O)[C@H](Cc1ccc(O)cc1)NC(=O)[C@H](CCCNC(=N)N)NC(=O)[C@H](CCCNC(=N)N)NC(=O)[C@H](CC(C)C)NC(=O)[C@H](CC(=O)O)NC(=O)[C@H](C)NC(=O)[C@H](C)NC(=O)[C@H](Cc1ccc(O)cc1)NC(=O)[C@H](CCC(N)=O)NC(=O)[C@H](C)NC(=O)[C@H](CCSC)NC(=O)[C@H](CCC(N)=O)NC(=O)[C@H](CCC(=O)O)NC(=O)[C@@H]1CCCN1C(=O)[C@@H](NC(=O)[C@H](C)NC(=O)[C@H](CC(N)=O)NC(=O)[C@H](CC(=O)O)NC(=O)CNC(=O)[C@@H]1CCCN1C(=O)[C@H](Cc1ccc(O)cc1)NC(=O)[C@H](CCCCNC(=O)COCCOCCNC(=O)COCCOCCNC(=O)CC[C@H](NC(=O)CCCCCCCCCCCCCCCCC(=O)O)C(=O)O)NC(=O)[C@@H]1CCCN1C(=O)[C@H](CCC(=O)O)NC(=O)[C@H](CC(C)C)NC(=O)[C@@H]1CCCN1)[C@@H](C)O)C(=O)N[C@@H](CC(N)=O)C(=O)N[C@@H](CCSC)C(=O)N[C@@H](CC(C)C)C(=O)N[C@H](C(=O)N[C@@H](CCCNC(=N)N)C(=O)N1CCC[C@H]1C(=O)N[C@@H](CCCNC(=N)N)C(=O)N[C@@H](Cc1ccc(O)cc1)C(N)=O)[C@@H](C)O [Compound AB]
Second: CC[C@H](C)[C@H](NC(=O)[C@H](Cc1ccc(O)cc1)NC(=O)[C@H](CCCNC(=N)N)NC(=O)[C@H](CCCNC(=N)N)NC(=O)[C@H](CC(C)C)NC(=O)[C@H](CC(=O)O)NC(=O)[C@H](C)NC(=O)[C@H](C)NC(=O)[C@H](Cc1ccc(O)cc1)NC(=O)[C@H](CCC(N)=O)NC(=O)[C@H](C)NC(=O)[C@H](CCSC)NC(=O)[C@H](CCC(N)=O)NC(=O)[C@H](CCC(=O)O)NC(=O)[C@@H]1CCCN1C(=O)[C@@H](NC(=O)[C@H](C)NC(=O)[C@H](CC(N)=O)NC(=O)[C@H](CC(=O)O)NC(=O)CNC(=O)[C@@H]1CCCN1C(=O)[C@H](Cc1ccc(O)cc1)NC(=O)[C@@H](NC(=O)[C@H](CCCCNC(=O)COCCOCCNC(=O)COCCOCCNC(=O)CC[C@H](NC(=O)CCCCCCCCCCCCCCCCC(=O)O)C(=O)O)NC(=O)[C@H](CCC(=O)O)NC(=O)[C@H](CC(C)C)NC(=O)[C@@H]1CCCN1)C(C)C)[C@@H](C)O)C(=O)N[C@@H](CC(N)=O)C(=O)N[C@@H](CCSC)C(=O)N[C@@H](CC(C)C)C(=O)N[C@H](C(=O)N[C@@H](CCCNC(=N)N)C(=O)N1CCC[C@H]1C(=O)N[C@@H](CCCNC(=N)N)C(=O)N[C@@H](Cc1ccc(O)cc1)C(N)=O)[C@@H](C)O [Compound AC]
The half-life of the first is 4-fold higher: 44 h for the first, 11 h for the second.
